We go through one compound from patent US11224565B2, “N-acyldipeptide derivatives and their uses” (NeoStrata Company, Inc., priority 2011, dated 2022).

The test has as its system muscle strength. The test can be described thus: Pushup performance after topical application to upper chest. The test is classed as in vivo, human. To be noted: 0.5% (w/v) in WEP442 pH 6.9 on upper chest about 30 minutes before exercise; routinely about 100. How it is done: A subject, performed pushups routinely with a maximal number of about 100 in one hour. The subject topically applied 0.5% (w/v) N—Ac-L-Tyr-L-Tyr-NH2 in WEP442, pH 6.9 solution as prepared in Example 5 to ease the tight muscles on the upper chest about 30 minutes before the exercise. The subject was surprised to find that after the topical application they could now perform pushups with a maximal number of about 200 in one hour without feeling tired. The subject repeated the performance next day with the same enhanced result. To make sure that the enhanced effect on the muscles was not due to the vehicle solution, in the following day the subject topically applied WEP442 solution to the same upper chest about 30 minutes before the exercise. This time the subject could not perform the same number of pushups as before.

Molecules are shown by their SMILES. Peptide text beside a SMILES is read from it.

Turning to `CC(=O)N[C@@H](Cc1ccc(O)cc1)C(=O)N[C@@H](Cc1ccc(O)cc1)C(N)=O` [N-Ac-L-Tyr-L-Tyr-NH2] (Ac-Tyr-Tyr-NH2), the “maximal number of pushups in one hour” value is reported as “about 200”.
